How the values were obtained:
green foxtail [1] = assay: Test Example 5: herbicidal effect by foliage application, plastic box (Table 20, symbol G); type: in vivo, green foxtail (Setaria viridis); conditions: foliage application, 320 g/ha, three weeks after application
Summary of the method: (§1)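 Plants were sown into sterilized diluvial soil under about 1.5 cm cover and kept in a greenhouse at 25° C. to 30° C. Fourteen days on, foliage received an even spray of the diluted emulsion. Herbicidal or crop effect was judged three weeks afterwards.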

lambsquarters [2] = assay: Test Example 5: herbicidal effect by foliage application, plastic box (Table 20, symbol O); type: in vivo, lambsquarters (Chenopodium album); conditions: foliage application, 320 g/ha, three weeks after application
Summary of the method: as §1

persian speedwell [3] = assay: Test Example 5: herbicidal effect by foliage application, plastic box (Table 20, symbol R); type: in vivo, Persian speedwell (Veronica persica); conditions: foliage application, 320 g/ha, three weeks after application
Summary of the method: as §1

Japanese bulrush = assay: Test Example 1: herbicidal activity, application before weed generation under submerged conditions (Table 16, symbol B); type: in vivo, Japanese bulrush (Schoenoplectus juncoides); conditions: 320 g/ha applied herbicide
Summary of the method: (§2)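 Alluvial soil was flooded to 4 cm depth, weed seeds were sown mixed and 2.5-leaf rice seedlings were transplanted. On sowing day, the compound's emulsion, diluted in water to a set dose, was applied to the water surface. Plants grew at 25–30 °C and were scored 0–5 after three weeks.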

chickweed [4] = assay: Test Example 4: herbicidal effect by soil treatment (Table 19, symbol P); type: in vivo, common chickweed (Stellaria media); conditions: amount of applied herbicide 320 g/ha
Summary of the method: (§3)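 In this soil treatment, the formulated compound reached the seeds only through the soil: seeds were buried about 1.5 cm deep in sterilized diluvial soil, then the diluted emulsion was sprayed over the surface. After three weeks at 25° C. to 30° C. in a greenhouse, effects were graded on criteria from an earlier test.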

Italian ryegrass [5] = assay: Test Example 5: herbicidal effect by foliage application, plastic box (Table 20, symbol K); type: in vivo, Italian ryegrass (Lolium multiflorum); conditions: foliage application, 320 g/ha, three weeks after application
Summary of the method: as §1

wild oat [6] = assay: Test Example 4: herbicidal effect by soil treatment (Table 19, symbol I); type: in vivo, wild oat (Avena fatua); conditions: amount of applied herbicide 320 g/ha
Summary of the method: as §3

southern crabgrass [7] = assay: Test Example 5: herbicidal effect by foliage application, plastic box (Table 20, symbol F); type: in vivo, southern crabgrass (Digitaria ciliaris); conditions: foliage application, 320 g/ha, three weeks after application
Summary of the method: as §1

blackgrass [8] = assay: Test Example 5: herbicidal effect by foliage application, plastic box (Table 20, symbol J); type: in vivo, blackgrass (Alopecurus myosuroides); conditions: foliage application, 320 g/ha, three weeks after application
Summary of the method: as §1

rice flat sedge = assay: Test Example 3: herbicidal effect by foliage application, Wagner pot (Table 18, symbol E); type: in vivo, rice flat sedge (Cyperus iria); conditions: 320 g/ha
Summary of the method: (§4)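 Plants were sown in alluvial soil held under 0.1–0.5 cm standing water and grown 14 days in a greenhouse at 25–30 °C. An emulsifiable formulation, water-diluted to the set dose, was then sprayed onto the foliage, and effects were scored three weeks later using previously defined criteria.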

green foxtail [9] = assay: Test Example 4: herbicidal effect by soil treatment (Table 19, symbol G); type: in vivo, green foxtail (Setaria viridis); conditions: amount of applied herbicide 320 g/ha
Summary of the method: as §3

windgrass [10] = assay: Test Example 4: herbicidal effect by soil treatment (Table 19, symbol L); type: in vivo, windgrass (Apera spica-venti); conditions: amount of applied herbicide 320 g/ha
Summary of the method: as §3

oval-leafed pondweed = assay: Test Example 1: herbicidal activity, application before weed generation under submerged conditions (Table 16, symbol C); type: in vivo, oval-leafed pondweed (Monochoria vaginalis); conditions: 320 g/ha applied herbicide
Summary of the method: as §2

southern crabgrass [11] = assay: Test Example 4: herbicidal effect by soil treatment (Table 19, symbol F); type: in vivo, southern crabgrass (Digitaria ciliaris); conditions: amount of applied herbicide 320 g/ha
Summary of the method: as §3

chickweed [12] = assay: Test Example 5: herbicidal effect by foliage application, plastic box (Table 20, symbol P); type: in vivo, common chickweed (Stellaria media); conditions: foliage application, 320 g/ha, three weeks after application
Summary of the method: as §1

barnyard grass [13] = assay: Test Example 5: herbicidal effect by foliage application, plastic box (Table 20, symbol H); type: in vivo, barnyard grass (Echinochloa crus-galli); conditions: foliage application, 320 g/ha, three weeks after application
Summary of the method: as §1

barnyard grass [14] = assay: Test Example 3: herbicidal effect by foliage application, Wagner pot (Table 18, symbol H); type: in vivo, barnyard grass (Echinochloa crus-galli); conditions: 320 g/ha
Summary of the method: as §4

redroot pigweed [15] = assay: Test Example 4: herbicidal effect by soil treatment (Table 19, symbol N); type: in vivo, redroot pigweed (Amaranthus retroflexus); conditions: amount of applied herbicide 320 g/ha
Summary of the method: as §3

velvetleaf [16] = assay: Test Example 5: herbicidal effect by foliage application, plastic box (Table 20, symbol M); type: in vivo, velvetleaf (Abutilon theophrasti); conditions: foliage application, 320 g/ha, three weeks after application
Summary of the method: as §1

false cleavers [17] = assay: Test Example 5: herbicidal effect by foliage application, plastic box (Table 20, symbol Q); type: in vivo, false cleavers (Galium spurium); conditions: foliage application, 320 g/ha, three weeks after application
Summary of the method: as §1

blackgrass [18] = assay: Test Example 4: herbicidal effect by soil treatment (Table 19, symbol J); type: in vivo, blackgrass (Alopecurus myosuroides); conditions: amount of applied herbicide 320 g/ha
Summary of the method: as §3

persian speedwell [19] = assay: Test Example 4: herbicidal effect by soil treatment (Table 19, symbol R); type: in vivo, Persian speedwell (Veronica persica); conditions: amount of applied herbicide 320 g/ha
Summary of the method: as §3

Italian ryegrass [20] = assay: Test Example 4: herbicidal effect by soil treatment (Table 19, symbol K); type: in vivo, Italian ryegrass (Lolium multiflorum); conditions: amount of applied herbicide 320 g/ha
Summary of the method: as §3

Chinese sprangletop = assay: Test Example 3: herbicidal effect by foliage application, Wagner pot (Table 18, symbol D); type: in vivo, chinese sprangletop (Leptochloa chinensis); conditions: 320 g/ha
Summary of the method: as §4

velvetleaf [21] = assay: Test Example 4: herbicidal effect by soil treatment (Table 19, symbol M); type: in vivo, velvetleaf (Abutilon theophrasti); conditions: amount of applied herbicide 320 g/ha
Summary of the method: as §3

late watergrass = assay: Test Example 1: herbicidal activity, application before weed generation under submerged conditions (Table 16, symbol A); type: in vivo, late watergrass (Echinochloa oryzicola); conditions: 320 g/ha applied herbicide
Summary of the method: as §2

lambsquarters [22] = assay: Test Example 4: herbicidal effect by soil treatment (Table 19, symbol O); type: in vivo, lambsquarters (Chenopodium album); conditions: amount of applied herbicide 320 g/ha
Summary of the method: as §3

wild oat [23] = assay: Test Example 5: herbicidal effect by foliage application, plastic box (Table 20, symbol I); type: in vivo, wild oat (Avena fatua); conditions: foliage application, 320 g/ha, three weeks after application
Summary of the method: as §1

false cleavers [24] = assay: Test Example 4: herbicidal effect by soil treatment (Table 19, symbol Q); type: in vivo, false cleavers (Galium spurium); conditions: amount of applied herbicide 320 g/ha
Summary of the method: as §3

redroot pigweed [25] = assay: Test Example 5: herbicidal effect by foliage application, plastic box (Table 20, symbol N); type: in vivo, redroot pigweed (Amaranthus retroflexus); conditions: foliage application, 320 g/ha, three weeks after application
Summary of the method: as §1

barnyard grass [26] = assay: Test Example 4: herbicidal effect by soil treatment (Table 19, symbol H); type: in vivo, barnyard grass (Echinochloa crus-galli); conditions: amount of applied herbicide 320 g/ha
Summary of the method: as §3

windgrass [27] = assay: Test Example 5: herbicidal effect by foliage application, plastic box (Table 20, symbol L); type: in vivo, windgrass (Apera spica-venti); conditions: foliage application, 320 g/ha, three weeks after application
Summary of the method: as §1

SMILES: CCCC(=O)Oc1c(C)nn(C)c(=O)c1-c1c(-c2ccc(OC)c(C)c2)sc2ccccc12 [1-069]
- herbicidal effect grade, G: green foxtail (green foxtail [1]): 0 (Herbicidal rate of 5% or less (almost no effect))
- herbicidal effect grade, O: lambsquarters (lambsquarters [2]): 0 (Herbicidal rate of 5% or less (almost no effect))
- herbicidal effect grade, R: persian speedwell (persian speedwell [3]): 4 (Herbicidal rate of 70% or more and less than 90%)
- Herbicidal effect on B: Japanese bulrush (grade 0-5) (Japanese bulrush): 3 (Herbicidal rate of 40% or more and less than 70%)
- herbicidal effect rating, P: chickweed (chickweed [4]): 3 (Herbicidal rate of 40% or more and less than 70%)
- herbicidal effect grade, K: Italian ryegrass (Italian ryegrass [5]): 3 (Herbicidal rate of 40% or more and less than 70%)
- herbicidal effect rating, I: wild oat (wild oat [6]): 0 (Herbicidal rate of 5% or less (almost no effect))
- herbicidal effect grade, F: southern crabgrass (southern crabgrass [7]): 0 (Herbicidal rate of 5% or less (almost no effect))
- herbicidal effect grade, J: blackgrass (blackgrass [8]): 0 (Herbicidal rate of 5% or less (almost no effect))
- herbicidal effect on E (rice flat sedge), rating 0-5 (rice flat sedge): 5 (Herbicidal rate of 90% or more (almost completely withered))
- herbicidal effect rating, G: green foxtail (green foxtail [9]): 0 (Herbicidal rate of 5% or less (almost no effect))
- herbicidal effect rating, L: windgrass (windgrass [10]): 0 (Herbicidal rate of 5% or less (almost no effect))
- Herbicidal effect on C: oval-leafed pondweed (grade 0-5) (oval-leafed pondweed): 3 (Herbicidal rate of 40% or more and less than 70%)
- herbicidal effect rating, F: southern crabgrass (southern crabgrass [11]): 0 (Herbicidal rate of 5% or less (almost no effect))
- herbicidal effect grade, P: chickweed (chickweed [12]): 4 (Herbicidal rate of 70% or more and less than 90%)
- herbicidal effect grade, H: barnyard grass (barnyard grass [13]): 0 (Herbicidal rate of 5% or less (almost no effect))
- herbicidal effect on H (barnyard grass), rating 0-5 (barnyard grass [14]): 3 (Herbicidal rate of 40% or more and less than 70%)
- herbicidal effect rating, N: redroot pigweed (redroot pigweed [15]): 0 (Herbicidal rate of 5% or less (almost no effect))
- herbicidal effect grade, M: velvetleaf (velvetleaf [16]): 5 (Herbicidal rate of 90% or more (almost completely withered))
- herbicidal effect grade, Q: false cleavers (false cleavers [17]): 0 (Herbicidal rate of 5% or less (almost no effect))
- herbicidal effect rating, J: blackgrass (blackgrass [18]): 0 (Herbicidal rate of 5% or less (almost no effect))
- herbicidal effect rating, R: persian speedwell (persian speedwell [19]): 4 (Herbicidal rate of 70% or more and less than 90%)
- herbicidal effect rating, K: Italian ryegrass (Italian ryegrass [20]): 0 (Herbicidal rate of 5% or less (almost no effect))
- herbicidal effect on D (Chinese sprangletop), rating 0-5 (Chinese sprangletop): 0 (Herbicidal rate of 5% or less (almost no effect))
- herbicidal effect rating, M: velvetleaf (velvetleaf [21]): 0 (Herbicidal rate of 5% or less (almost no effect))
- Herbicidal effect on A: late watergrass (grade 0-5) (late watergrass): 3 (Herbicidal rate of 40% or more and less than 70%)
- herbicidal effect rating, O: lambsquarters (lambsquarters [22]): 0 (Herbicidal rate of 5% or less (almost no effect))
- herbicidal effect grade, I: wild oat (wild oat [23]): 1 (Herbicidal rate of 5% or more and less than 20%)
- herbicidal effect rating, Q: false cleavers (false cleavers [24]): 0 (Herbicidal rate of 5% or less (almost no effect))
- herbicidal effect grade, N: redroot pigweed (redroot pigweed [25]): 5 (Herbicidal rate of 90% or more (almost completely withered))
- herbicidal effect rating, H: barnyard grass (barnyard grass [26]): 0 (Herbicidal rate of 5% or less (almost no effect))
- herbicidal effect grade, L: windgrass (windgrass [27]): 0 (Herbicidal rate of 5% or less (almost no effect))

— patent publication US20230085307A1, “PYRIDAZINONE COMPOUND AND HERBICIDE” (NISSAN CHEMICAL CORPORATION, priority 2019, published 2023)
